Experiments:
Type in all cases: cell-based
[1] = system: sorafenib-resistant liver cancer cell line SK-Hep-R; test: Cell proliferation, trypan blue cell count with hemocytometer; details: sorafenib alone, FIG. 4B
[2] = system: sorafenib-resistant liver cancer cell line Huh7-SR; test: Cell death by FACS (annexin/PI) and cleaved caspase-3; details: Huh7-SR cells; FIGS. 1A to 1C
Experimental: (§1) To evaluate the cancer cell death by FACS, first, a cancer cell line was incubated in FITC-bound annexin and propidium iodide (PI) for 15 minutes, and annexin and PI binding were then measured by flow cytometry to acquire data using a BD Accuri C6 flow cytometer (BD Biosciences) and analyzed with the ACCURI™ C6 analysis program (BD Biosciences)/FlowJo software (FlowJo, LLC.). Cancer cell line death was evaluated using a cleaved caspase-3 antibody (Cell Signaling Technology).

[3] = system: sorafenib-resistant liver cancer cell line SK-Hep-R; test: as above; details: SK-Hep-R cells; FIGS. 1A to 1C
Experimental: as §1

[4] = system: sorafenib-resistant liver cancer cell line Huh7-R; test: Cell proliferation, trypan blue cell count with hemocytometer; details: sorafenib alone, FIG. 4A
[5] = system: SK-Hep-1 liver cancer cells; test: MTT cell viability assay, TKI combination; details: Homo sapiens, SK-HEP1, lenvatinib 15 μM, 24 hours, read-out: growth inhibition
Experimental: (§2) To evaluate anticancer effects of ERRγ compound, alone and in combination with TKIs, various cancer cells including A549, Panc-1, Sk-Hep-1, Huh-7, and SK-Hep-1 cells were cultured in DMEM containing 10% FBS and 1% antibiotics.
(§3) To initiate the assay, cells were seeded in 96-well plates at a density of 1×10^4 cells per well and incubated overnight in a 37° C. […] To serve as a control, an equal volume of DMSO was added. After 24 hours of incubation, the media was replaced with media containing 0.5 mg/ml of MTT and the plates were incubated for 1 hour. Then, the medium was removed and formazan crystals were dissolved in 100 μl of DMSO added to each well. A microplate reader was used to measure the absorbance at 570 nm, and cell viability was normalized to control. Statistical significance was calculated using Student's t-test, with significance levels set at **p<0.01, ***p<0.001, and ****p<0.0001.

Huh-7 liver cancer cells = test: MTT cell viability assay, TKI combination; details: Homo sapiens, lenvatinib 1.3 μM, 24 hours, read-out: growth inhibition
Experimental: as §2, §3

[6] = system: Panc1 pancreatic cancer cells; test: MTT cell viability assay, TKI combination; details: Homo sapiens, PANC-1, ceritinib 2.5 μM, 24 hours, read-out: growth inhibition
Experimental: as §2, §3

[7] = system: A549 lung cancer cell line; test: MTT cell viability assay, TKI combination; details: Homo sapiens, bosutinib 12.5 μM, 24 hours, read-out: growth inhibition
Experimental: as §2, §3

[8] = system: SKOV-3 ovarian cancer cells; test: MTT cell viability assay, TKI combination; details: Homo sapiens, SK-OV-3, ruxolitinib 30 μM, 24 hours, read-out: growth inhibition

CNC(=O)c1cc(Oc2ccc(NC(=O)Nc3ccc(Cl)c(C(F)(F)F)c3)cc2)ccn1 [sorafenib]
cell proliferation [1]: not affected
cell death by sorafenib [2]: did not increase
cell death by sorafenib [3]: did not increase
cell proliferation [4]: not affected

COc1cc2nccc(Oc3ccc(NC(=O)NC4CC4)c(Cl)c3)c2cc1C(N)=O [lenvatinib]
inhibition at 15 µM [5]: 16.7%
inhibition at 1.3 µM (Huh-7 liver cancer cells): 16.7%

Cc1cc(Nc2ncc(Cl)c(Nc3ccccc3S(=O)(=O)C(C)C)n2)c(OC(C)C)cc1C1CCNCC1 [ceritinib]
inhibition at 2.5 µM [6]: 17%

COc1cc(Nc2c(C#N)cnc3cc(OCCCN4CCN(C)CC4)c(OC)cc23)c(Cl)cc1Cl [bosutinib]
inhibition at 12.5 µM [7]: 16.3%

N#CC[C@H](C1CCCC1)n1cc(-c2ncnc3[nH]ccc23)cn1 [ruxolitinib]
inhibition at 30 µM [8]: 8.8%

Reference: US20230390279A1, “COMPOSITION AND METHOD FOR TREATING CANCER” (NOVMETAPHARMA CO., LTD., priority 2022, published 2023)
